How the values were obtained:
[1] = tested on: T-Rex 293 cell line SC3 cells having increased expression of androgen receptor protein due to exposure to doxycycline; test: Cellular growth inhibition, T-Rex 293 SC3 cells with doxycycline (androgen receptor induced), CellTiter-Glo; type: cell-based; conditions: 72 h, T-Rex 293 SC3 cells with 10 ng/mL doxycycline (increased androgen receptor expression)
Procedure: (§1) The following types of cells were prepared for this experiment: (i) a T-Rex 293 cell line having increased expression of androgen receptor protein due to exposure to doxycycline and (ii) a T-Rex 293 cell line lacking increased expression of androgen receptor protein. Ability of the test compounds to inhibit proliferation of the foregoing cell types was evaluated according to the procedures set forth below.
(§2) The doxycycline-inducible androgen receptor protein expressing cell line was established using the following protocol: T-Rex 293 cells were purchased from Invitrogen (Cat #R71007) and transfected using Lipofectamine 2000 with the wild-type androgen receptor protein sequence cloned into the pcDNA4/TO vector. Transfected cells were selected using 400 μg/mL Zeocin (Invitrogen Cat #R25001). Following selection, single clones were raised and maintained in Dulbecco's Modified Eagle Medium (DMEM) supplemented with 10% w/w Tetracycline-free fetal bovine serum (FBS) and 250 μg/mL Zeocin. Clones were analyzed for expression of androgen receptor protein in the presence and absence of 10 ng/mL doxycycline (Sigma Cat #D9891), and a single doxycycline-inducible clone (hereinafter “SC3”) was selected for use in downstream assays.
(§3) The SC3 cells were seeded on poly-D-lysine coated, black clear-bottom 384-well plates at 2500/well, in 25 μL Phenol Red Free Dulbecco's Modified Eagle Medium (DMEM) supplemented with 10% w/w charcoal-dextran treated fetal bovine serum (FBS) and 1% w/w pen-strep, with or without 10 ng/mL doxycycline. Pen-Strep is a commercially available mixture of penicillin G and streptomycin, which is used in mammalian cell culture media to prevent bacterial contamination. Phenol Red Free Dulbecco's Modified Eagle Medium (DMEM) supplemented with 10% w/w charcoal-dextran treated fetal bovine serum (FBS) and 1% w/w pen-strep, with or without 10 ng/mL doxycycline is herein referred to as Treatment Medium. Following seeding of cells in the plates, the plates were spun at 300×g for 30 seconds, then equilibrated to room temperature for 30 minutes, and then deposited in a humidified tissue culture incubator maintained at 37° C. with 5% CO2.
(§4) At 24 hours after seeding of the cells, dilutions of test compound were prepared in DMSO and dissolved in Treatment Medium, to achieve a final DMSO concentration of 0.5% w/w, thereby providing the Test Compound Solution. A 25 μL aliquot of the Test Compound Solution was added to cells in the well plates. An equal volume of a solution containing DMSO and Treatment Medium was used as a negative control. Following treatment of cells with Test Compound Solution or said equal volume of a solution containing DMSO and Treatment Medium, the plates were spun at 300×g for 30 seconds, and then left in an incubator for 72 hours. At the end of the treatment duration, cell viability was quantified with CellTiter-Glo 2.0 reagent (Promega Cat #G9243). For this purpose, plates were equilibrated to room temperature for 30 minutes, and then 25 μL of CellTiter-Glo 2.0 reagent was added to cells in the plate wells. Plates were then agitated on a shaker for two minutes at 500 rpm and subsequently incubated at room temperature for 10 minutes. Following incubation, the plates were spun at 3000×g for 30 seconds, then sealed with an optical adhesive cover, and luminescence readings were measured with an EnVision Plate Reader. Data was normalized using zero luminescence for baseline. A four-parameter non-linear regression curve fit was applied to dose-response data in GraphPad Prism data analysis software to determine the half-maximal growth inhibitory concentration (GI50) for each test compound.

T47D cells = test: Cellular growth inhibition assay for T47D cells, CellTiter-Glo; type: cell-based, human; conditions: Homo sapiens, T47D, 72 h, 72 hours treatment, CellTiter-Glo 2.0 cell viability
In short: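 Growth inhibition as GI50, fitted with four parameters to CellTiter-Glo luminescence after 72 h of compound exposure (0.5% DMSO). Cells were T47D, grown in insulin-supplemented (0.2 units/mL) DMEM with 10% FBS and treated one day post-seeding.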

[2] = tested on: T-Rex 293 cell line SC3 cells lacking increased expression of androgen receptor protein; test: Cellular growth inhibition, T-Rex 293 SC3 cells without doxycycline, CellTiter-Glo; type: cell-based; conditions: 72 h, T-Rex 293 SC3 cells not exposed to doxycycline, CellTiter-Glo 2.0
Procedure: as §1, §2, §3, §4

VCaP cells = test: Cellular growth inhibition assay for VCaP cells, CellTiter-Glo; type: cell-based, human; conditions: Homo sapiens, VCaP, 72 h, 72 hours treatment, CellTiter-Glo 2.0
In short: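 GI50 values come from four-parameter curve fits of luminescence data normalized to a zero baseline. Compound, in medium with 0.5% DMSO, was added one day after plating and left for 72 h before CellTiter-Glo 2.0 addition.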

| SMILES | GI50 (T47D cells) | GI50 (VCaP cells) | GI50 [1] | GI50 [2] |
| --- | --- | --- | --- | --- |
| Cc1sc2c(c1C)C(c1ccc(Cl)cc1)=N[C@@H](CC(=O)NCCN1CCN(CC3CCN(c4ncc(C(=O)N[C@H]5C(C)(C)[C@H](Oc6ccc(C#N)c(Cl)c6)C5(C)C)cn4)CC3)CC1)c1nnc(C)n1-2 [Compound I-35, N-((1r,3r)-3-(3-chloro-4-cyanophenoxy)-2,2,4,4-tetramethylcyclobutyl)-2-(4-((4-(2-(2-((S)-4-(4-chlorophenyl)-2,3,9-trimethyl-6H-thieno[3,2-f][1,2,4]triazolo[4,3-a][1,4]diazepin-6-yl)acetamido)ethyl)piperazin-1-yl)methyl)piperidin-1-yl)pyrimidine-5-carboxamide] | < 500 nM | 500 to 1500 nM | 500 to 1500 nM | 500 to 1500 nM |
| Cc1sc2c(c1C)C(c1ccc(OC3CC4(CCN(c5ncc(C(=O)N[C@H]6C(C)(C)[C@H](Oc7ccc(C#N)c(Cl)c7)C6(C)C)cn5)CC4)C3)cc1)=N[C@H](Cc1ncco1)c1nnc(C)n1-2 [Compound I-50, N-[3-(3-chloro-4-cyano-phenoxy)-2,2,4,4-tetramethyl-cyclobutyl]-2-[2-[4-[(9R)-4,5,13-trimethyl-9-(oxazol-2-ylmethyl)-3-thia-1,8,11,12-tetrazatricyclo[8.3.0.02,6]trideca-2(6),4,7,10,12-pentaen-7-yl]phenoxy]-7-azaspiro[3.5]nonan-7-yl]pyrimidine-5-carboxamide] | > 3000 nM | > 3000 nM | < 500 nM | > 3000 nM |
| Cc1sc2c(c1C)C(c1ccc(C#CCN3CCN(c4ncc(C(=O)N[C@H]5C(C)(C)[C@H](Oc6ccc(C#N)c(Cl)c6)C5(C)C)cn4)CC3)cc1)=N[C@@H](Cc1ncco1)c1nnc(C)n1-2 [Compound I-56] | < 500 nM | < 500 nM | < 500 nM | < 500 nM |
| Cc1sc2c(c1C)C(c1ccc(C#CCC3CCN(c4ncc(C(=O)N[C@H]5C(C)(C)[C@H](Oc6ccc(C#N)c(Cl)c6)C5(C)C)cn4)CC3)cc1)=N[C@@H](Cc1ncco1)c1nnc(C)n1-2 [Compound I-57] | < 500 nM | < 500 nM | < 500 nM | < 500 nM |
| Cc1sc2c(c1C)C(c1ccc(C#CC3CC4(C3)CN(c3ncc(C(=O)N[C@H]5C(C)(C)[C@H](Oc6ccc(C#N)c(Cl)c6)C5(C)C)cn3)C4)cc1)=N[C@@H](Cc1ncco1)c1nnc(C)n1-2 [Compound I-59] | < 500 nM | < 500 nM | < 500 nM | < 500 nM |
| CCNC(=O)C[C@@H]1N=C(c2ccc(CCCCOC3CCN(c4ncc(C(=O)N[C@H]5C(C)(C)[C@H](Oc6ccc(C#N)c(Cl)c6)C5(C)C)cn4)CC3)cc2)c2c(sc(C)c2C)-n2c(C)nnc21 [Compound I-91] |  | 500 to 1500 nM | < 500 nM | 500 to 1500 nM |
| CCNC(=O)C[C@@H]1N=C(c2ccc(CCCCCCCOC3CCN(c4ncc(C(=O)N[C@H]5C(C)(C)[C@H](Oc6ccc(C#N)c(Cl)c6)C5(C)C)cn4)CC3)cc2)c2c(sc(C)c2C)-n2c(C)nnc21 [Compound I-92] |  | < 500 nM | < 500 nM | > 3000 nM |
| Cc1sc2c(c1C)C(c1ccc(CC3CC(C4CCCN(c5ncc(C(=O)N[C@H]6C(C)(C)[C@H](Oc7ccc(C#N)c(Cl)c7)C6(C)C)cn5)C4)C3)cc1)=N[C@@H](C)c1nnc(C)n1-2 (stereo partly drawn) [Compound I-463] |  | < 500 nM | < 500 nM | > 3000 nM |
| Cc1sc2c(c1C)C(c1ccc(-c3cn(C4CCN(c5ncc(C(=O)N[C@H]6C(C)(C)[C@H](Oc7ccc(C#N)c(Cl)c7)C6(C)C)cn5)CC4)nn3)cc1)=NC(Cc1ncco1)c1nnc(C)n1-2 (stereo partly drawn) [Compound I-483] |  | < 500 nM | < 500 nM | < 500 nM |
| Cc1sc2c(c1C)C(c1ccc(-c3cn(C4CCN(c5ncc(C(=O)N[C@H]6C(C)(C)[C@H](Oc7ccc(C#N)c(Cl)c7)C6(C)C)cn5)CC4)cn3)cc1)=N[C@@H](Cc1ncco1)c1nnc(C)n1-2 [Compound I-484] |  | 500 to 1500 nM | < 500 nM | 500 to 1500 nM |
| Cc1sc2c(c1C)C(c1ccc(N3CCCN(CCCNc4ncc(C(=O)N[C@H]5C(C)(C)[C@H](Oc6ccc(C#N)c(Cl)c6)C5(C)C)cn4)CC3)cc1)=N[C@@H](Cc1ncco1)c1nnc(C)n1-2 [Compound I-666] |  | < 500 nM | < 500 nM | 1500 to 3000 nM |
| Cc1sc2c(c1C)C(c1ccc(N3CCC(C)(CNc4ncc(C(=O)N[C@H]5C(C)(C)[C@H](Oc6ccc(C#N)c(Cl)c6)C5(C)C)cn4)CC3)cc1)=NC(Cc1ncco1)c1nnc(C)n1-2 (stereo partly drawn) [Compound I-667] |  | < 500 nM | < 500 nM | < 500 nM |
| Cc1sc2c(c1C)C(c1ccc(N3CCC4(CC3)CC(Nc3ncc(C(=O)N[C@H]5C(C)(C)[C@H](Oc6ccc(C#N)c(Cl)c6)C5(C)C)cn3)C4)cc1)=N[C@@H](Cc1ncco1)c1nnc(C)n1-2 [Compound I-668] |  | < 500 nM | < 500 nM | < 500 nM |
| Cc1sc2c(c1C)C(c1ccc(N3CCO[C@@H](CNc4ncc(C(=O)N[C@H]5C(C)(C)[C@H](Oc6ccc(C#N)c(Cl)c6)C5(C)C)cn4)C3)cc1)=NC(Cc1ncco1)c1nnc(C)n1-2 (stereo partly drawn) [Compound I-669] |  | < 500 nM | < 500 nM | < 500 nM |
| Cc1sc2c(c1C)C(c1ccc(N3CCN(c4ncc(C(=O)N[C@H]5C(C)(C)[C@H](Oc6ccc(C#N)c(Cl)c6)C5(C)C)cn4)CC(F)(F)C3)cc1)=NC(Cc1ncco1)c1nnc(C)n1-2 (stereo partly drawn) [Compound I-670] |  | < 500 nM | < 500 nM | > 3000 nM |

The next lines start with results.

| GI50 (T47D cells) | GI50 (VCaP cells) | SMILES | GI50 [1] | GI50 [2] |
| --- | --- | --- | --- | --- |
| 500 to 1500 nM | 500 to 1500 nM | Cc1sc2c(c1C)C(c1ccc(Cl)cc1)=N[C@@H](CC(=O)NCCCOC1CCN(c3ncc(C(=O)N[C@H]4C(C)(C)[C@H](Oc5ccc(C#N)c(Cl)c5)C4(C)C)cn3)CC1)c1nnc(C)n1-2 [Compound I-20] | < 500 nM | 500 to 1500 nM |
| 500 to 1500 nM | < 500 nM | Cc1sc2c(c1C)C(c1ccc(Cl)cc1)=N[C@H](CC(=O)NCCCCOC1CCN(c3ncc(C(=O)N[C@H]4C(C)(C)[C@H](Oc5ccc(C#N)c(Cl)c5)C4(C)C)cn3)CC1)c1nnc(C)n1-2 [Compound I-21] | < 500 nM | > 3000 nM |
| > 3000 nM | < 500 nM | Cc1sc2c(c1C)C(c1ccc(C#CCC3CCN(c4ncc(C(=O)N[C@H]5C(C)(C)[C@H](Oc6ccc(C#N)c(Cl)c6)C5(C)C)cn4)CC3)cc1)=N[C@H](Cc1ncco1)c1nnc(C)n1-2 [Compound I-58] | < 500 nM | > 3000 nM |
| 500 to 1500 nM | < 500 nM | Cc1sc2c(c1C)C(c1ccc(OCCOC3CCN(c4ncc(C(=O)N[C@H]5C(C)(C)[C@H](Oc6ccc(C#N)c(Cl)c6)C5(C)C)cn4)CC3)cc1)=N[C@@H](CC(=O)NC(C)C)c1nnc(C)n1-2 [Compound I-65] | < 500 nM | < 500 nM |
|  | < 500 nM | Cc1sc2c(c1C)C(c1ccc(-n3cc(C4CCN(c5ncc(C(=O)N[C@H]6C(C)(C)[C@H](Oc7ccc(C#N)c(Cl)c7)C6(C)C)cn5)CC4)nn3)cc1)=N[C@@H](Cc1ncco1)c1nnc(C)n1-2 [Compound I-481] | < 500 nM | 500 to 1500 nM |
|  | < 500 nM | Cc1sc2c(c1C)C(c1ccc(-c3cc(C4CCN(c5ncc(C(=O)N[C@H]6C(C)(C)[C@H](Oc7ccc(C#N)c(Cl)c7)C6(C)C)cn5)CC4)no3)cc1)=NC(Cc1ncco1)c1nnc(C)n1-2 (stereo partly drawn) [Compound I-482] | < 500 nM | < 500 nM |
